Results reported in patent publication US10695296B2, “Formulations, methods, kit, and dosage forms for improved stability of an active pharmaceutical ingredient” (Asana BioSciences, LLC, priority 2017, dated 2020).

Test system: advanced solid tumors
Test: Preliminary efficacy / disposition of human subjects
Assay type: in vivo
Description: A pharmaceutical formulation of the disclosure comprising the active ingredient N-(3-(2-(6-amino-4-(trifluoromethyl)pyridin-3-yl)-4-morpholinopyrido[3,2-d]pyrimidin-6-yl)-2-fluorophenyl)-3-fluoropropane-1-sulfonamide was evaluated for safety/tolerability and preliminary efficacy in eligible human subjects with advanced solid tumors, and the pharmacokinetic (PK) profile of the active ingredient was investigated for each subject. Eligibility criteria for inclusion in this study included:
The pharmaceutical formulation of the disclosure discussed in Example 8 above was evaluated for safety/tolerability and preliminary efficacy in eligible human subjects with advanced solid tumors. The clinical trial design followed in Example 8 of this disclosure is shown in FIG. 15, and the patient demographics and disposition of the subjects tested in Example 8 are given in Table 7 below.

SMILES: Nc1cc(C(F)(F)F)c(-c2nc(N3CCOCC3)c3nc(-c4cccc(NS(=O)(=O)CCCF)c4F)ccc3n2)cn1 [CMPD A, N-(3-(2-(6-amino-4-(trifluoromethyl)pyridin-3-yl)-4-morpholinopyrido[3,2-d]pyrimidin-6-yl)-2-fluorophenyl)-3-fluoropropane-1-sulfonamide]
- Diagnosis/Status Summary (subject 101-002, Cohort 1 (10 mg QD), NSCLC (KRAS)): NSCLC (KRAS)/Discontinued, RECIST PD
- Diagnosis/Status Summary (subject 101-003, Cohort 3 (40 mg QD), Endometrial adenocarcinoma (PIK3ca, KRAS)): Discontinued, RECIST PD
- Diagnosis/Status Summary (subject 101-004, Cohort 5 (120 mg QD), Melanoma (BRAFv600e)): Melanoma (BRAFv600e)/Discontinued, RECIST PD
- Diagnosis/Status Summary (subject 101-005, additional 80 mg QD, Colon (PI3Kca, KRAS)): Colon (PI3Kca, KRAS)/Discontinued, RECIST PD
- Diagnosis/Status Summary (subject 101-007, additional 120 mg QD, Colon (NRAS)): Colon (NRAS)/Discontinued, RECIST PD
- Diagnosis/Status Summary (subject 101-008, additional 240 mg QD, Colon (KRAS)): Colon (KRAS)/Discontinued RECIST PD
- Diagnosis/Status Summary (subject 101-009, Cohort 7 (400 mg QD), Rectal (KRAS)): Rectal (KRAS)/Discontinued RECIST PD
- Diagnosis/Status Summary (subject 102-001, Cohort 2 (20 mg QD), Duodenal adenocarcinoma (AKT1, EFGR, c-MET)): Discontinued, SAE, RECIST PD
- Diagnosis/Status Summary (subject 102-002, Cohort 4 (80 mg QD), Appendix adenocarcinoma (BRAF, KRAS)): Discontinued, RECIST PD
- Diagnosis/Status Summary (subject 102-003, additional 40 mg QD, Parotid myoepithelial carcinoma (PI3Kca)): Discontinued, RECIST PD
- Diagnosis/Status Summary (subject 102-004, additional 120 mg QD, Pancreatic (KRAS)): Pancreatic (KRAS)/Discontinued, RECIST PD
- Diagnosis/Status Summary (subject 102-005, Cohort 8 (400 mg BID), Melanoma (BRAFv600e)): Melanoma (BRAFv600e)/Ongoing-Cycle 1
- Diagnosis/Status Summary (subject 103-001, Cohort 6 (240 mg QD), Cholangiocarcinoma (PIK3CA)): Cholangiocarcinoma (PIK3CA)/Ongoing-Cycle 3
